This is an account of results in patent US20120323002A1, “IMIDAZOPYRIDAZINE COMPOUNDS” (AJINOMOTO CO., INC., priority 2009, published 2012).

Assay type in all cases: cell-based, mouse (female Balb/c)
Assay [1] relates to IL-12p70 (IL-12p35/p40 complex). Description: Cytokine inhibiting action using mouse peritoneal macrophages: IL-12p70 production (ELISA). Particulars: Peritoneal macrophage, 100 ng/mL mouse interferon-γ + 0.05% (v/v) SAC, incubated overnight, 50% production inhibition concentration. As for the experimental part:
(§1) 1 mL of a 3% (w/v) thioglycolate solution was intraperitoneally administered to a mouse (female Balb/c). 5 or 6 days later, the peritoneal cells of the mouse were collected, and the adherent cells were used for evaluation. 100 ng/mL of mouse interferon-γ, a 0.05% (v/v) suspension of killed Staphylococcus aureus Cowan I strain (SAC) and a compound of the present invention were added thereto and incubated overnight. After the incubation, the survival rate was measured, and each of IL-12p70 (IL-12p35/p40 complex) and TNF-α was quantified by ELISA using the collected culture supernatant to calculate the 50% production inhibition concentration (IC50) (refer to Table 1; meanwhile, the blanks in the table indicate unmeasured).
In general terms: An ELISA detects its analyte on a solid surface through an enzyme-linked reagent.

The test system of another assay is TNF-α. Description: Cytokine inhibiting action using mouse peritoneal macrophages: TNF-α production (ELISA). Particulars: Peritoneal macrophage, 100 ng/mL mouse interferon-γ + 0.05% (v/v) SAC, incubated overnight, 50% production inhibition concentration. As to the method: as §1
Assay [2] concerns IL-12p70 (IL-12p35/p40 complex). Briefly: Cytokine inhibiting action using mouse whole blood: IL-12p70 production (ELISA). The note with it: mouse whole blood (EDTA), 200 ng/mL mouse interferon-γ + 1.25% (v/v) SAC, incubated overnight; 50% production inhibition concentration. As to the method:
The blood (EDTA addition) was collected from a mouse (female Balb/c) and used for evaluation. 200 ng/mL of mouse interferon-γ, a 1.25% (v/v) suspension of killed Staphylococcus aureus Cowan I strain (SAC) and a compound of the present invention were added to a cell culture medium, diluted to become a quantity equal to the blood and incubated overnight.

Take `Cc1cccc(/C=N/Nc2cc(N3CCOCC3)c3nc(-c4cccnc4)cn3n2)c1` [Compound 3, N-(3-methyl-benzylidene)-N′-(8-morpholin-4-yl-2-pyridin-3-yl-imidazo[1,2-b]pyridazin-6-yl)-hydrazine]: the IC50 – broadly, the concentration needed to halve the response being measured – in assay [1] is 8.7 nM; in the assay with TNF-α, greater than 10000 nM; in assay [2], 3000 nM.
The matching figures for `Cc1cccc(/C=N/Nc2cc(N3CCOCC3)c3nc(-c4ccncc4)cn3n2)c1` [Compound 4, N-(3-methyl-benzylidene)-N′-(8-morpholin-4-yl-2-pyridin-4-yl-imidazo[1,2-b]pyridazin-6-yl)-hydrazine]: 3.6 nM, greater than 10000 nM and 470 nM.
